Experimental data as given in patent US6599943B1, “Use of hydroxyguanidines” (WaPharm AB, priority 1996, dated 2003).

Tests used:
Assay type in all cases: biochemical
[1] = molecular target: T1, crude spleen cytosol (hydroxyguanidine reducing activity) (Rattus norvegicus, UniProt P22985); assay: Reduction of guanoxabenz to guanabenz by crude spleen cytosol, HPLC
T1 construct: from tissue; host or cells: rat spleen (70,000 x g supernatant)
Procedure: Preparation of crude spleen cytosol. Rat spleens were homogenised (1:10 w/v) in ice-cold […] Tris, 1.5 mM EDTA, pH 7.5 with glass/Teflon homogenizer. The homogenate was centrifuged at 30,000×g for 15 min at 4° C. and stored frozen at −80° C. After thawing the supernatant was centrifuged at 70,000×g for 1 hr at 4° C. and used for the assays.
Identification of a reaction product derived from hydroxyguanidine. Crude spleen cytosol was incubated at 25° C. with 70 μM guanoxabenz (2(2,6-dichlorophenyl)methylene-N-hydroxyhydrazine carboxi-imidamide) in the presence of 25 mM Tris-HCl, 0.75 mM EDTA, the total volume being 4 ml. Aliquots of 250 μl were then withdrawn from the reaction mixture after 1, 30, 60, 90 or 240 minutes and heated in a water bath to 80° C. for 5 minutes. The sample was then centrifuged and the supernatant filtered through a 0.22 μm Millipore filter whereafter 200 μl of the filtrate was injected into a reverse phase chromatography column (Waters Symmetry C8) equilibrated in 40% methanol, 60% 10 mM Na-acetate buffer, pH 4.5. The elution speed was 0.5 ml/min and the eluted substances were detected by a UV-monitor set at 260 nm.
In FIG. 1 is shown exemplary details on the time course of appearence of the product.
Preparation of the enzymatic reaction product for NMR-analysis. To obtain enough of the product for NMR studies guanoxabenz (500 μM) was pre-incubated with the crude spleen cytosol for 1 hr. […] Total volume of the reaction mixture was 4 ml. After the incubation the reaction mixture was boiled, centrifuged and filtered, essentially as described above, and aliquots of the materials injected onto the HPLC column. […] The fractions containing the product peak were collected, pooled and lyophilized and then subjected to NMR-analysis.

xanthine oxidase = xanthine oxidase (Bos taurus, UniProt P80457); assay: Inhibition of superoxide radical formation by xanthine oxidase, EPR with DMPO; settings: 100 μM guanoxabenz, 100 μM xanthine, 0.04 units/ml xanthine oxidase, 50 μM DMPO
Sequence of xanthine oxidase (P80457 whole entry): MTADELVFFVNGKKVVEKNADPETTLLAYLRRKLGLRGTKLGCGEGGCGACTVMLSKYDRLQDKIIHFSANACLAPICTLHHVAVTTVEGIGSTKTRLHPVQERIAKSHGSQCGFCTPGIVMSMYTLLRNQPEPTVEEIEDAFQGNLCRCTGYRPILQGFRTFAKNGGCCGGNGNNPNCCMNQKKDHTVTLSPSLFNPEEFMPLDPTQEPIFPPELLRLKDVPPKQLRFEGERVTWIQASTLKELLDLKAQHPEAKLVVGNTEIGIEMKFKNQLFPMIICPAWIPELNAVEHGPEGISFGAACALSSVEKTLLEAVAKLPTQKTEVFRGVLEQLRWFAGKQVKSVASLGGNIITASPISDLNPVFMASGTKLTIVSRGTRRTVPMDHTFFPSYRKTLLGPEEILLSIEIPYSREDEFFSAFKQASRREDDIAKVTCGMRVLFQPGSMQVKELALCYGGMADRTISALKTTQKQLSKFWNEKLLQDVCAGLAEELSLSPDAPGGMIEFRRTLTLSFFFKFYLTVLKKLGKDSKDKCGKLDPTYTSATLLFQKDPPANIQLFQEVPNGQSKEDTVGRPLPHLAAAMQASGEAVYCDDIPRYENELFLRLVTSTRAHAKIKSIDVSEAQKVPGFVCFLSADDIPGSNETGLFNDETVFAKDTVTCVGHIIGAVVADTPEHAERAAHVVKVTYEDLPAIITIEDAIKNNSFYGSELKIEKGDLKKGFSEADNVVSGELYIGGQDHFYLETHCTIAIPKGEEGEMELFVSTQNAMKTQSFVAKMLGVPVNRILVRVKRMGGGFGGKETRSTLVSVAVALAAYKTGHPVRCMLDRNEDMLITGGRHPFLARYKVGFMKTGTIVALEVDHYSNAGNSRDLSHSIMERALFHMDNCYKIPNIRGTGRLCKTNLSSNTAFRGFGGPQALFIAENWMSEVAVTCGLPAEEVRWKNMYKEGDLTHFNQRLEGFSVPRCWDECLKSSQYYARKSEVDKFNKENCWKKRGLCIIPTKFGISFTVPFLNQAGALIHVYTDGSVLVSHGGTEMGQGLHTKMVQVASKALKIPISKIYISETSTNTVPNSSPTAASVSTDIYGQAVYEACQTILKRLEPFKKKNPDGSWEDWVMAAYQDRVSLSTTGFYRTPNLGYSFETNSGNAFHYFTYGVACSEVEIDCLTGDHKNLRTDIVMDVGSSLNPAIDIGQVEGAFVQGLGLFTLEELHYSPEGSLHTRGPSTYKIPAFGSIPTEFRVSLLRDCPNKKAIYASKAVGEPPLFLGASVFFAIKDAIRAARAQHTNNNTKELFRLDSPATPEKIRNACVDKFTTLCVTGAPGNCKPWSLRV
Procedure: Capacity of hydroxyguanidines to inhibit the formation of superoxide radicals by xanthine oxidase in the presence of oxygen. The detection of the spin adducts of superoxide formed by xanthine oxidase and xanthine reaction was performed by using a Bruker ER200D-SRC EPR spectrometer equipped with an ER4105ST double cavity and the spin trap agent DMPO, by essentially using the approach described by Britigan et al. (1990). In brief, reaction mixtures of total volumes of 0.5 ml were prepared by adding to a plastic tubes, in the listed order, reagents that gave final concentrations as follows: 50 mM Tris HCl, 1.5 mM EDTA, 100 μM xanthine, 100 μM guanoxabenz, 0.04 units/ml xanthine oxidase and 50 μM DMPO, pH 7.5. As a control served an identical reaction mixture except that guanoxabenz had been omitted. The solutions were immediately transferred to standard flat cells for aqueous samples and spectra were recorded at room temperature. Spectrometer settings were as follows: microwave power 3.99 mW; modulation amplitude 1.028 G; time constant 10.24 ms; modulation frequency 100 kHz; receiver gain, 5×10^4. In FIG. 6 is shown an exemplary recording from these tests. […] This additional signal was due to a contaminant corresponding to “nitric oxide” that was released from the disposable laboratory plastic used in the preparation of the samples (see Buettner et al., 1991).

[2] = molecular target: bovine milk xanthine oxidase (Bos taurus, UniProt P80457); assay: Oxidation of xanthine to uric acid by xanthine oxidase in absence and presence of oxygen, spectrophotometric; parameters: host or cells: bovine milk; settings: 50 μM guanoxabenz, 50 μM xanthine; both in the absence of oxygen (nitrogen) and in the presence of 20% oxygen
Sequence of bovine milk xanthine oxidase (P80457 whole entry): as above
Procedure: Capacity of hydroxyguanidines to sustain oxidation of xanthine by xanthine oxidase in the absence and in the presence of oxygen. The capacity of hydroxyguanidines to sustain the oxidation of xanthine to uric acid in the absence and presence of oxygen was assayed by using a spectrophotometric method. In this method bovine milk xanthine oxidase was injected to a Helma® sealable cuvette for anaerobic applications thereby creating 1 ml of a reaction mixture that contained reagents as follows: 50 μM of a hydroxyguanidine, 50 μM xanthine, 0.05 units/ml bovine milk xanthine oxidase, 50 mM Tris and 1.5 mM EDTA; the pH of the reaction mixture being 7.5, and the temperature being 20° C. Anaerobic conditions were assured by pre-gassing all solutions used for 5-10 min, with nitrogen whereas aerobic conditions was assured by exposing the solutions to air. The rate of formation of uric acid was monitored spectrophotometrically by measuring the increase in absorbance at 295 nm (the absorption maximum for uric acid) at timed intervals. In FIG. 5 are shown examplary recordings from these tests. In this test the hydroxyguanidine was guanoxabenz.

[3] = 70 μM guanoxabenz, 25° C., after 1 minute incubation, HPLC 260 nm
[4] = 70 μM guanoxabenz, after 1 hour

T1 sequence (P22985 whole entry): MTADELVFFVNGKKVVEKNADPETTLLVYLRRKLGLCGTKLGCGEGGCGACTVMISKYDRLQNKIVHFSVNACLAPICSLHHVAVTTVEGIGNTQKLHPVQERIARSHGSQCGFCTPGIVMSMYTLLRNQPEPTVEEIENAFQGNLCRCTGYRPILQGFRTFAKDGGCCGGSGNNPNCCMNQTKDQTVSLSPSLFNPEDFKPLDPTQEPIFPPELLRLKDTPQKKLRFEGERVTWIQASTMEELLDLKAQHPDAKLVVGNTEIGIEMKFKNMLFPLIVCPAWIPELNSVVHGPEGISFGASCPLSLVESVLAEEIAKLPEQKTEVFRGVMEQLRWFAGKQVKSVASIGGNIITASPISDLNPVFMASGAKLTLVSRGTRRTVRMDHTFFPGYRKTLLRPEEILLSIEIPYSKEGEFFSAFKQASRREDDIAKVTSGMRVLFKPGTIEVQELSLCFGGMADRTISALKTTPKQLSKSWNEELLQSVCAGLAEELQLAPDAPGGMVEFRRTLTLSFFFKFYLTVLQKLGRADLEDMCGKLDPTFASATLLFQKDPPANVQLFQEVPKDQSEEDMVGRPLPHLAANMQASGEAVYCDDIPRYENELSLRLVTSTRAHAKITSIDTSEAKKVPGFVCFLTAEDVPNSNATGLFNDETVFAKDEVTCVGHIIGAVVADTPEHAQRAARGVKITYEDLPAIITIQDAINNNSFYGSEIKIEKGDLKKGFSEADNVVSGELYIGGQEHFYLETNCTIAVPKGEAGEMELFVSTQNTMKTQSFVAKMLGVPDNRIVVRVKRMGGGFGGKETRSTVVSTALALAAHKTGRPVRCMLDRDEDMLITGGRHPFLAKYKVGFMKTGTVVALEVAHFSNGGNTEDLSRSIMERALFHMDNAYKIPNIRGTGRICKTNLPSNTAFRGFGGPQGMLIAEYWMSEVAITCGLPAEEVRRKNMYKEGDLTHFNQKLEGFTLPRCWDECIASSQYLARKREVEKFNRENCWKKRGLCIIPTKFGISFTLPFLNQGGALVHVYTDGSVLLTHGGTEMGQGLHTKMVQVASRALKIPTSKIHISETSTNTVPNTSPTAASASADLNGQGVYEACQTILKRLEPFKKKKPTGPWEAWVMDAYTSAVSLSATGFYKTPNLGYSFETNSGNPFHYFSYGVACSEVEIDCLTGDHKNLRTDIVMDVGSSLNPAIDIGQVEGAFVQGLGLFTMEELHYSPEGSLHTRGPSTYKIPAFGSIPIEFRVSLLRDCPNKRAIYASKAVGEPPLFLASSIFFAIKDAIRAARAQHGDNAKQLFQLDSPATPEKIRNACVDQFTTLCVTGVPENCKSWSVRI

- UV-absorption corresponding to the guanabenz peak [1, 3]: 5%
- UV-absorption in the guanoxabenz peak [1, 3]: 95%
- guanabenz peak as part of total absorbance of the chromatograms [1, 4]: about ⅓
- guanoxabenz peak as part of total absorbance of the chromatograms [1, 4]: ⅔
- size of guanabenz and guanoxabenz peaks ([1]; 70 μM guanoxabenz, after 4 hours): about equal size
- peak corresponding to guanabenz, share of UV-absorbing material (260 nm) ([1]; 500 μM guanoxabenz, 1 hr, MgCl2 (2 mM) and DTT (2 mM)): more than 99%
- reduction of the superoxide signal (EPR) (xanthine oxidase): about 60%
- rate of the formation of uric acid (absorbance at 295 nm) [2]: substantial increase
SMILES: N=C(NO)NN=Cc1c(Cl)cccc1Cl [Guanoxabenz, 2(2,6-dichlorophenyl)methylene-N-hydroxyhydrazine carboxi-imidamide]
